Results reported in patent US10294202B2, “Pyrrolidinones as herbicides” (FMC Corporation, priority 2013, dated 2019).

Experiments:
morningglory = assay: Test A pre-/postemergence herbicide test; format: in vivo, Ipomoea spp.; conditions: for Morningglory plant response rating: Preemergence, visual rating on 0 to 100 scale (0 no effect, 100 complete control)
Procedure, shortened: (§1)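 Planted in loam–sand blend; treated the same day preemergence by directed soil spray, while separately grown plants at one- to two-leaf stage got postemergence spray. Compared visually with untreated controls after approximately 10 days; 100 means complete control.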

rice = assay: Test B flooded paddy test; format: in vivo, Oryza sativa; conditions: 250 g ai/ha, Flood; scale of 0 to 100 where 0 is no effect and 100 is complete control
Procedure, shortened: (§2)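 Scored visually 0–100 (0 no effect, 100 complete control) versus controls after 13 to 15 greenhouse days. Treatment: compound added to paddy water kept 3 cm above soil, on 2-leaf-stage plants.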

ducksalad = assay: Test B flooded paddy test; format: in vivo, Heteranthera limosa; conditions: 250 g ai/ha, Flood; scale of 0 to 100 where 0 is no effect and 100 is complete control
Procedure, shortened: as §2

velvetleaf = assay: Test A pre-/postemergence herbicide test; format: in vivo, Abutilon theophrasti; conditions: for Velvetleaf plant response rating: Preemergence, visual rating on 0 to 100 scale (0 no effect, 100 complete control)
Procedure, shortened: as §1

barnyardgrass [1] = assay: Test A pre-/postemergence herbicide test; format: in vivo, Echinochloa crus-galli; conditions: for Barnyardgrass plant response rating: Preemergence, visual rating on 0 to 100 scale (0 no effect, 100 complete control)
Procedure, shortened: as §1

pigweed = assay: Test A pre-/postemergence herbicide test; format: in vivo, Amaranthus retroflexus; conditions: for Pigweed plant response rating: Preemergence, visual rating on 0 to 100 scale (0 no effect, 100 complete control)
Procedure, shortened: as §1

giant foxtail = assay: Test A pre-/postemergence herbicide test; format: in vivo, Setaria faberii; conditions: for Foxtail, Giant plant response rating: Preemergence, visual rating on 0 to 100 scale (0 no effect, 100 complete control)
Procedure, shortened: as §1

crabgrass, large = assay: Test A pre-/postemergence herbicide test; format: in vivo, Digitaria sanguinalis; conditions: for Crabgrass, Large plant response rating: Preemergence, visual rating on 0 to 100 scale (0 no effect, 100 complete control)
Procedure, shortened: as §1

corn = assay: Test A pre-/postemergence herbicide test; format: in vivo, Zea mays; conditions: for Corn plant response rating: Preemergence, visual rating on 0 to 100 scale (0 no effect, 100 complete control)
Procedure, shortened: as §1

barnyardgrass [2] = assay: Test B flooded paddy test; format: in vivo, Echinochloa crus-galli; conditions: 250 g ai/ha, Flood; scale of 0 to 100 where 0 is no effect and 100 is complete control
Procedure, shortened: as §2

sedge, umbrella = assay: Test B flooded paddy test; format: in vivo, Cyperus difformis; conditions: 250 g ai/ha, Flood; scale of 0 to 100 where 0 is no effect and 100 is complete control
Procedure, shortened: as §2

wheat = assay: Test A pre-/postemergence herbicide test; format: in vivo, Triticum aestivum; conditions: for Wheat plant response rating: Preemergence, visual rating on 0 to 100 scale (0 no effect, 100 complete control)
Procedure, shortened: as §1

[3] = Postemergence, 125 g ai/ha, 0 to 100 scale, 0 no effect, 100 complete control
[4] = Postemergence, 500 g ai/ha, 0 to 100 scale (0 no effect, 100 complete control)
[5] = preemergence, 500 g ai/ha, 0 to 100 scale
[6] = preemergence, 500 g ai/ha, 0 to 100 scale (0 no effect, 100 complete control)

Compound	Plant response rating, Morningglory (morningglory; [3])	Plant response rating, Morningglory (morningglory; [4])	Morningglory plant response rating (morningglory; 125 g ai/ha)	Plant response rating, Morningglory (morningglory; [5])	Plant response rating, Rice (rice)	Plant response rating, Ducksalad (ducksalad)	Plant response rating, Velvetleaf (velvetleaf; [3])	Plant response rating, Velvetleaf (velvetleaf; [4])	Velvetleaf plant response rating (velvetleaf; 125 g ai/ha)	Plant response rating, Velvetleaf (velvetleaf; [5])	Plant response rating, Barnyardgrass (barnyardgrass [1]; [3])	Plant response rating, Barnyardgrass (barnyardgrass [1]; [4])	Barnyardgrass plant response rating (barnyardgrass [1]; 125 g ai/ha)	Plant response rating, Barnyardgrass (barnyardgrass [1]; [6])	Plant response rating, Pigweed (pigweed; [3])	Plant response rating, Pigweed (pigweed; [4])	Pigweed plant response rating (pigweed; 125 g ai/ha)	Plant response rating, Pigweed (pigweed; [5])	Plant response rating, Foxtail, Giant (giant foxtail; [3])	Plant response rating, Foxtail, Giant (giant foxtail; [4])	further results
O=C1NCC(c2cc(F)c(F)cc2F)C1C(=O)Nc1ccccc1F (stereo not drawn) [Compound 51]	0	0	0	0	15	80	0	0	0	0	0	20	0	0	0	0	0	0	0	30	Foxtail, Giant plant response rating (giant foxtail; 125 g ai/ha): 30; Plant response rating, Foxtail, Giant (giant foxtail; [5]): 90; Plant response rating, Crabgrass, Large (crabgrass, large; [3]): 20; Plant response rating, Crabgrass, Large (crabgrass, large; [4]): 80; Crabgrass, Large plant response rating (crabgrass, large; 125 g ai/ha): 90; Plant response rating, Crabgrass, Large (crabgrass, large; [5]): 90; Plant response rating, Corn (corn; [3]): 0; Plant response rating, Corn (corn; [4]): 0; Corn plant response rating (corn; 125 g ai/ha): 0; Plant response rating, Corn (corn; [5]): 0; Plant response rating, Barnyardgrass (barnyardgrass [2]): 20; Plant response rating, Sedge, Umbrella (sedge, umbrella): 45; Plant response rating, Wheat (wheat; [3]): 0; Plant response rating, Wheat (wheat; [4]): 0; Wheat plant response rating (wheat; 125 g ai/ha): 0; Plant response rating, Wheat (wheat; [5]): 0
O=C1NCC(c2ccc(F)c(F)c2)C1C(=O)Nc1ccccc1OC(F)(F)F (stereo not drawn) [Compound 54]	0	0	0	0	20	70	0	0	0	0	0	0	0	20	0	0	0	0	60	70	Foxtail, Giant plant response rating (giant foxtail; 125 g ai/ha): 90; Plant response rating, Foxtail, Giant (giant foxtail; [5]): 90; Plant response rating, Crabgrass, Large (crabgrass, large; [3]): 70; Plant response rating, Crabgrass, Large (crabgrass, large; [4]): 80; Crabgrass, Large plant response rating (crabgrass, large; 125 g ai/ha): 90; Plant response rating, Crabgrass, Large (crabgrass, large; [5]): 90; Plant response rating, Corn (corn; [3]): 0; Plant response rating, Corn (corn; [4]): 0; Corn plant response rating (corn; 125 g ai/ha): 0; Plant response rating, Corn (corn; [5]): 0; Plant response rating, Barnyardgrass (barnyardgrass [2]): 0; Plant response rating, Sedge, Umbrella (sedge, umbrella): 0; Plant response rating, Wheat (wheat; [3]): 0; Plant response rating, Wheat (wheat; [4]): 0; Wheat plant response rating (wheat; 125 g ai/ha): 0; Plant response rating, Wheat (wheat; [5]): 20
Cc1cccc(NC(=O)C2C(=O)NCC2c2ccc(F)c(F)c2)c1 (stereo not drawn) [Compound 56]	0	0	0	0	0	0	0	0	0	0	0	50	0	40	0	0	0	0	20	60	Foxtail, Giant plant response rating (giant foxtail; 125 g ai/ha): 20; Plant response rating, Foxtail, Giant (giant foxtail; [5]): 50; Plant response rating, Crabgrass, Large (crabgrass, large; [3]): 50; Plant response rating, Crabgrass, Large (crabgrass, large; [4]): 80; Crabgrass, Large plant response rating (crabgrass, large; 125 g ai/ha): 60; Plant response rating, Crabgrass, Large (crabgrass, large; [5]): 90; Plant response rating, Corn (corn; [3]): 0; Plant response rating, Corn (corn; [4]): 0; Corn plant response rating (corn; 125 g ai/ha): 0; Plant response rating, Corn (corn; [5]): 0; Plant response rating, Barnyardgrass (barnyardgrass [2]): 0; Plant response rating, Sedge, Umbrella (sedge, umbrella): 0; Plant response rating, Wheat (wheat; [3]): 0; Plant response rating, Wheat (wheat; [4]): 0; Wheat plant response rating (wheat; 125 g ai/ha): 0; Plant response rating, Wheat (wheat; [5]): 0
CC1(C(=O)Nc2cccc(F)c2F)C(=O)NCC1c1ccc(F)c(Cl)c1 (stereo not drawn) [Compound 61]	0	0	0	0	0	0	0	0	0	0	0	20	0	0	0	0	0	0	0	30	Foxtail, Giant plant response rating (giant foxtail; 125 g ai/ha): 0; Plant response rating, Foxtail, Giant (giant foxtail; [5]): 0; Plant response rating, Crabgrass, Large (crabgrass, large; [3]): 0; Plant response rating, Crabgrass, Large (crabgrass, large; [4]): 70; Crabgrass, Large plant response rating (crabgrass, large; 125 g ai/ha): 0; Plant response rating, Crabgrass, Large (crabgrass, large; [5]): 80; Plant response rating, Corn (corn; [3]): 0; Plant response rating, Corn (corn; [4]): 0; Corn plant response rating (corn; 125 g ai/ha): 0; Plant response rating, Corn (corn; [5]): 0; Plant response rating, Barnyardgrass (barnyardgrass [2]): 0; Plant response rating, Sedge, Umbrella (sedge, umbrella): 30; Plant response rating, Wheat (wheat; [3]): 0; Plant response rating, Wheat (wheat; [4]): 0; Wheat plant response rating (wheat; 125 g ai/ha): 0; Plant response rating, Wheat (wheat; [5]): 0
